Several values for one entry are separate records, joined by “and”; a condition that tells them apart may be missing. Equal values may be shown once.
Assays:
Test in all cases: MTT assay, growth inhibition by deguelin or deguelin derivatives
Type in all cases: cell-based
Conditions in all cases: 3 days
H596 = system: H596
H322 = system: H322
H358 = system: H358
H1299 = system: H1299
H460 = system: H460
A549 = system: A549

## C=C(C)[C@H]1Cc2c(ccc3c(=O)c4c(oc23)COc2cc(OC)c(OC)cc2-4)O1 [6a,2a-dehydrorotenone]
H596; H596, 0.01 μM
  MTT assay reading, Average: 1.6089
  MTT assay reading, individual replicate: 1.581 and 1.597 and 1.651 and 1.605 and 1.631 and 1.617 and 1.58
H596; H596, 0.1 μM
  MTT assay reading, Average: 1.399
  MTT assay reading, individual replicate: 1.347 and 1.381 and 1.333 and 1.513 and 1.417 and 1.34 and 1.462
H596; H596, 0.5 μM
  MTT assay reading, Average: 1.4016
  MTT assay reading, individual replicate: 1.343 and 1.467 and 1.312 and 1.463 and 1.351 and 1.399 and 1.476
H596; H596, 1 μM
  MTT assay reading, Average: 1.3214
  MTT assay reading, individual replicate: 1.234 and 1.257 and 1.341 and 1.494 and 1.326 and 1.319 and 1.279
H322; H322, 0.01 μM
  MTT assay reading, Average: 0.969
  MTT assay reading, individual replicate: 0.795 and 0.799 and 0.893 and 0.989 and 1.014 and 1.101 and 1.192
H322; H322, 0.1 μM
  MTT assay reading, Average: 0.8656
  MTT assay reading, individual replicate: 0.865 and 0.771 and 0.799 and 0.872 and 0.866 and 0.909 and 0.977
H322; H322, 0.5 μM
  MTT assay reading, Average: 0.828
  MTT assay reading, individual replicate: 0.736 and 0.809 and 0.833 and 0.746 and 0.89 and 0.958 and 0.824
H322; H322, 1 μM
  MTT assay reading, Average: 0.7213
  MTT assay reading, individual replicate: 0.677 and 0.658 and 0.692 and 0.681 and 0.68 and 0.859 and 0.802
H358; H358, 0.01 μM
  MTT assay reading, Average: 0.8861
  MTT assay reading, individual replicate: 0.784 and 0.734 and 0.786 and 0.686 and 0.95 and 1.192 and 1.071
H358; H358, 0.1 μM
  MTT assay reading, Average: 0.7511
  MTT assay reading, individual replicate: 0.602 and 0.652 and 0.603 and 0.672 and 0.792 and 0.778 and 1.159
H358; H358, 0.5 μM
  MTT assay reading, Average: 0.6756
  MTT assay reading, individual replicate: 0.533 and 0.604 and 0.6 and 0.736 and 0.633 and 0.734 and 0.889
H358; H358, 1 μM
  MTT assay reading, Average: 0.684
  MTT assay reading, individual replicate: 0.686 and 0.624 and 0.639 and 0.64 and 0.667 and 0.752 and 0.78
H1299; H1299, 0.01 μM
  % control: 0.99%
  MTT assay reading, Average: 1.5514
  MTT assay reading, individual replicate: 1.562 and 1.561 and 1.559 and 1.63 and 1.515 and 1.517 and 1.516
H1299; H1299, 0.1 μM
  % control: 0.89%
  MTT assay reading, Average: 1.3907
  MTT assay reading, individual replicate: 1.39 and 1.308 and 1.385 and 1.539 and 1.281 and 1.351 and 1.481
H1299; H1299, 0.5 μM
  % control: 0.95%
  MTT assay reading, Average: 1.4937
  MTT assay reading, individual replicate: 1.544 and 1.561 and 1.338 and 1.502 and 1.595 and 1.413 and 1.503
H1299; H1299, 1 μM
  % control: 0.89%
  MTT assay reading, Average: 1.3961
  MTT assay reading, individual replicate: 1.452 and 1.321 and 1.233 and 1.57 and 1.421 and 1.33 and 1.446
H460; H460, 0.01 μM
  % control: 0.96%
  MTT assay reading, Average: 1.6774
  MTT assay reading, individual replicate: 1.625 and 1.563 and 1.731 and 1.89 and 1.443 and 1.675 and 1.815
H460; H460, 0.1 μM
  % control: 0.78%
  MTT assay reading, Average: 1.3666
  MTT assay reading, individual replicate: 1.314 (2×) and 1.333 and 1.204 and 1.501 and 1.379 and 1.521
H460; H460, 0.5 μM
  % control: 0.85%
  MTT assay reading, Average: 1.49
  MTT assay reading, individual replicate: 1.31 and 1.421 and 1.538 and 1.504 and 1.55 and 1.534 and 1.573
H460; H460, 1 μM
  % control: 0.79%
  MTT assay reading, Average: 1.382
  MTT assay reading, individual replicate: 1.253 and 1.353 and 1.351 and 1.347 and 1.429 and 1.319 and 1.622
A549; A549, 0.01 μM
  MTT assay reading, Average: 1.7067
  MTT assay reading, individual replicate: 1.69 (2×) and 1.705 and 1.541 and 1.829 and 1.786 and 1.706
A549; A549, 0.1 μM
  MTT assay reading, Average: 1.4161
  MTT assay reading, individual replicate: 0.691 and 1.805 and 1.719 and 1.454 and 1.375 (2×) and 1.494
A549; A549, 0.5 μM
  MTT assay reading, Average: 1.4871
  MTT assay reading, individual replicate: 1.531 and 1.925 and 1.594 and 1.387 and 1.359 and 1.356 and 1.258
A549; A549, 1 μM
  MTT assay reading, Average: 1.4281
  MTT assay reading, individual replicate: 1.544 and 1.458 and 1.375 and 1.486 and 1.428 and 1.464 and 1.242
